{"source": "patent US20110319392A1", "about": "“Thiazole Sulfonamide And Oxazole Sulfonamide Kinase Inhibitors” (priority 2009, published 2011)", "key": {"A375P F11s": {"system": "A375P F11s", "experiment": "In vivo tumor growth, A375P F11s subcutaneous tumors", "design": "species or system athymic mice; key: −: no response; +: growth delay (1-2×doubling); ++: growth delay (>2×doubling); +++: stable disease; ++++: partial regression; +++++: complete regression", "conditions": "oral, 14-day period", "experimental": "(§1) A375P F11s and Colo205 cells were cultured in RPMI 1640 medium supplemented with 10% fetal bovine serum and 1% sodium pyruvate or 10% fetal bovine serum and without sodium pyruvate, respectively. Tumor cells (1.75×10^6 A375P F11 s or 5×10^6 Colo205) were implanted subcutaneously into the right flank of athymic mice on Day 1. To facilitate their growth, A375P F11s cells were suspended in Matrigel diluted 1:1 in phosphate-buffered saline before implantation. When tumors had reached approximately 200 mm^3 in volume (Day 19-22), tumor-bearing mice were randomized into study groups (n=7 or 8). Animals were dosed orally once or twice daily for a 14-day period. The compound of Example 19b was dosed in a 0.5% HPMC/0.2% Tween 80 pH 7-8 vehicle. Tumor growth was measured twice a week using calipers for the duration of the study. Tumor volumes were calculated as a product of (length×width×width)/2 and median values were used to compare groups. Complete regressions (CR) were defined as three consecutive tumor measurements of ≦13.5 mm^3. Partial regressions were defined as three consecutive measurements of ≦50% of starting tumor volume. Tumor growth delay was defined as the difference in time taken for treated and control groups to reach 1000 mm^3 (T-C1000)."}, "Colo205": {"system": "Colo205", "experiment": "In vivo tumor growth, Colo205 subcutaneous tumors", "design": "species or system athymic mice; key: −: no response; +: growth delay (1-2×doubling); ++: growth delay (>2×doubling); +++: stable disease; ++++: partial regression; +++++: complete regression", "conditions": "oral, 14-day period", "experimental": "as §1"}}, "note": "Counter-ions that a name gives are not always drawn. Marks after values point to notes of the source that are not given here."}
{"compound": "COc1cc(N2CCN(CCS(C)(=O)=O)CC2)c(C)cc1Nc1nccc(-c2sc(C(C)C)nc2-c2cccc(NS(=O)(=O)c3c(F)cccc3F)c2)n1", "note": "[Example 19b, 2,6-Difluoro-N-(3-(2-(1-methylethyl)-5-(24(5-methyl-2-(methyloxy)-4-(4-[2-(methylsulfonyl)ethyl]-1-piperazinyl}phenyl)amino]-4-pyrimidinyl}-1,3-thiazol-4-yl)phenyl]benzenesulfonamide dihydrochloride]", "values": [{"measurement": "Response", "setting": "A375P F11s; 1 mg/kg bid", "value": "−"}, {"measurement": "Response", "setting": "A375P F11s; 3 mg/kg bid", "value": "+"}, {"measurement": "Response", "setting": "A375P F11s; 10 mg/kg bid", "value": "++"}, {"measurement": "Response", "setting": "A375P F11s; 30 mg/kg bid", "value": "++++"}, {"measurement": "Response", "setting": "A375P F11s; 30 mg/kg qd, during dosing", "value": "+++ (during dosing)*"}, {"measurement": "Response", "setting": "Colo205; 30 mg/kg bid", "value": "++"}, {"measurement": "Response", "setting": "Colo205; 30 mg/kg qd", "value": "−"}, {"measurement": "Response", "setting": "Colo205; 100 mg/kg bid", "value": "++++"}, {"measurement": "Response", "setting": "Colo205; 300 mg/kg qd", "value": "++++"}]}
